Measurements as given in patent US6469196B2, “Dialkyl phenyl halide-substituted keto-enols for use as herbicides and pesticides” (Bayer Aktiengesellschaft, priority 1995, dated 2002).

Tests used:
Type in all cases: in vivo
[1] = tested on: peach aphid (Myzus persicae); experiment: Myzus test; details: active compound concentration 0.1%; after 6 days; dipped infested cabbage leaves (Brassica oleracea)
Method: (§1) Myzus Test Solvent: 7 parts by weight of dimethylformamide Emulsifier: 1 part by weight of alkylaryl polyglycol ether To produce a suitable preparation of active compound, 1 part by weight of active compound is mixed with the stated amount of solvent and the stated amount of emulsifier, and the concentrate is diluted with water to the desired concentration. Cabbage leaves (Brassica oleracea) which have been heavily infested with the peach aphid (Myzus persicae) are treated by being dipped into the preparation of the active compound of the desired concentration. After the specified period of time, the destruction in % is determined. 100% means that all the aphids have been killed; 0% means that none of the aphids have been killed.

[2] = tested on: green rice leafhopper (Nephotettix cincticeps); experiment: Nephotettix test; details: active compound concentration 0.1%; after 6 days; dipped rice seedlings (Oryza sativa)
Method: Nephotettix Test Solvent: 7 parts by weight of dimethylformamide Emulsifier: 1 part by weight of alkylaryl polyglycol ether To produce a suitable preparation of active compound, 1 part by weight of active compound is mixed with the stated amount of solvent and the stated amount of emulsifier, and the concentrate is diluted with water to the desired concentration. Rice seedlings (Oryza sativa) are treated by being dipped into the preparation of the active compound of the desired concentration and are infested with the green rice leafhopper (Nephotettix cincticeps) while the leaves are still moist. After the specified period of time, the destruction in % is determined. 100% means that all the leafhoppers have been killed; 0% means that none of the leafhoppers have been killed.

[3] = tested on: common spider mite or two-spotted spider mite (Tetranychus urticae); experiment: Tetranychus test (OP-resistant/dipping treatment); details: active compound concentration 0.1%; after 13 days; dipped infested bean plants (Phaseolus vulgaris)
Method: Tetranychus Test (OP-resistant/dipping Treatment)
Solvent: 7 parts by weight of dimethylformamide
Emulsifier: 1 part by weight of alkylaryl polyglycol ether
To produce a suitable preparation of active compound, 1 part by weight of active compound is mixed with the stated amount of solvent and the stated amount of emulsifier, and the concentrate is diluted with water to the desired concentration.
Bean plants (Phaseolus vulgaris) which have been heavily infested with the common spider mite or two-spotted spider mite (Tetranychus urticae) in all stages of development are treated by being dipped into the preparation of the active compound of the desired concentration.
After the specified period of time, the destruction in % is determined. 100% means that all the spider mites have been killed; 0% means that none of the spider mites have been killed.

[4] = tested on: mustard beetle larvae (Phaedon cochleariae); experiment: Phaedon larvae test; details: active compound concentration 0.1%; after 7 days; dipped cabbage leaves (Brassica oleracea)
Method: as §1, with “Phaedon larvae” for “Myzus”, “oleracea)” for “oleracea) which have been heavily infested with the peach aphid (Myzus persicae)”, “concentration and are infested with mustard beetle larvae (Phaedon cochleariae), while” for “concentration. After”, “leaves are still moist. […]” for “specified period of time, the destruction in % is determined.”, “beetle larvae” for “aphids”

[5] = tested on: caterpillars of the diamond-back moth (Plutella xylostella); experiment: Plutella test; details: active compound concentration 0.1%; after 7 days; dipped cabbage leaves (Brassica oleracea)
Method: Plutella Test Solvent: 7 parts by weight of dimethylformamide Emulsifier: 1 part by weight of alkylaryl polyglycol ether To produce a suitable preparation of active compound, 1 part by weight of active compound is mixed with the stated amount of solvent and the stated amount of emulsifier, and the concentrate is diluted with water to the desired concentration. Cabbage leaves (Brassica oleracea) are treated by being dipped into the preparation of the active compound of the desired concentration and are infested with caterpillars of the diamond-back moth (Plutella xylostella) while the leaves are still moist. After the specified period of time, the destruction in % is determined. 100% means that all the caterpillars have been killed; 0% means that none of the caterpillars have been killed.

Cc1cc(C)c(C2=C(O)C3(CCCCC3)OC2=O)c(Br)c1 [Example I-2-a-1]
100%: destruction in % [1] | destruction in % [2] | action (destruction in %) [3] | destruction in % [4]

Cc1cc(C)c(C2=C(OC(=O)C(C)(C)C)C3(CCCCC3)OC2=O)c(Br)c1 [Example I-2-b-1]
100%: destruction in % [2] | destruction in % [5] | destruction in % [4]

Cc1cc(Br)cc(C)c1C1=C(O)C2(CCCC(C)C2)NC1=O (stereo not drawn) [Example I-1-a-1]
100%: destruction in % [2] | destruction in % [4]
